Measurements published in the supplement of paper PMC10307832.

What was measured:
Experiment in all cases: relative viability (nuclei count vs DMSO), 5 days (fraction); higher = more cells survive
[1] = compound: CC1=C(C(=O)N2C=CSC2=N1)CCN3CCC(=C(C4=CC=CC=C4)C5=CC=C(C=C5)F)CC3 + Cc1nc(NC(=O)N2CCC[C@H]2C(N)=O)sc1-c1ccnc(C(C)(C)C(F)(F)F)c1 [Alpelisib] (partner 2 µM)
Method in brief: (§1)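 Cells from lung cancer lines were seeded into 1536-well plates and, one day later, dosed by pin tool. Treatments were either a single drug or a fixed dose of an anchor drug with five library-drug doses (not always all listed) in √10 steps. After 5 days, nuclei were stained in a one-step fixation (final 0.05% Triton X-100, 1% formaldehyde, 1 ug/ml Hoechst) and counted on 4× images, and relative viability is the treated-to-vehicle nuclei ratio, as the median of duplicate plates.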

[2] = compound: CC1=C(C(=O)N2C=CSC2=N1)CCN3CCC(=C(C4=CC=CC=C4)C5=CC=C(C=C5)F)CC3 + C[C@@H](Oc1cc(-c2cnn(C3CCNCC3)c2)cnc1N)c1c(Cl)ccc(F)c1Cl [Crizotinib] (partner 1 µM)
Method in brief: as §1

[3] = compound: CC1=C(C(=O)N2C=CSC2=N1)CCN3CCC(=C(C4=CC=CC=C4)C5=CC=C(C=C5)F)CC3 + CS(=O)(=O)N1CCN(Cc2cc3nc(-c4cccc5[nH]ncc45)nc(N4CCOCC4)c3s2)CC1 [Pictilisib] (partner 1 µM)
Method in brief: as §1

[4] = compound: CC1=C(C(=O)N2C=CSC2=N1)CCN3CCC(=C(C4=CC=CC=C4)C5=CC=C(C=C5)F)CC3 + CC(C)C[C@H](NC(=O)[C@H](Cc1ccccc1)NC(=O)c1cnccn1)B(O)O [Bortezomib] (partner 0.002 µM)
Method in brief: as §1

[5] = compound: CC1=C(C(=O)N2C=CSC2=N1)CCN3CCC(=C(C4=CC=CC=C4)C5=CC=C(C=C5)F)CC3 + C[C@]1(O)C[C@@H](c2nc(-c3ccc4ccc(-c5ccccc5)nc4c3)c3c(N)nccn32)C1 [Linsitinib] (partner 1 µM)
Method in brief: as §1

[6] = compound: CC1=C(C(=O)N2C=CSC2=N1)CCN3CCC(=C(C4=CC=CC=C4)C5=CC=C(C=C5)F)CC3 + Cc1nc(Nc2ncc(C(=O)Nc3c(C)cccc3Cl)s2)cc(N2CCN(CCO)CC2)n1 [Dasatinib] (partner 0.075 µM)
Method in brief: as §1

[7] = compound: CC1=C(C(=O)N2C=CSC2=N1)CCN3CCC(=C(C4=CC=CC=C4)C5=CC=C(C=C5)F)CC3 + CCNC(=O)c1noc(-c2cc(C(C)C)c(O)cc2O)c1-c1ccc(CN2CCOCC2)cc1 [Luminespib] (partner 0.01 µM)
Method in brief: as §1

[8] = compound: CC1=C(C(=O)N2C=CSC2=N1)CCN3CCC(=C(C4=CC=CC=C4)C5=CC=C(C=C5)F)CC3 + N=C(N)NC(=N)NCCc1ccccc1 [Phenformin] (partner 250 µM)
Method in brief: as §1

[9] = compound: CC1=C(C(=O)N2C=CSC2=N1)CCN3CCC(=C(C4=CC=CC=C4)C5=CC=C(C=C5)F)CC3 + Nc1nc2[nH]cc(CCc3ccc(C(=O)N[C@@H](CCC(=O)O)C(=O)O)cc3)c2c(=O)[nH]1 [Pemetrexed] (partner 0.2 µM)
Method in brief: as §1

[10] = compound: CC1=C(C(=O)N2C=CSC2=N1)CCN3CCC(=C(C4=CC=CC=C4)C5=CC=C(C=C5)F)CC3 + COc1cccc2cc(-c3nc([C@H]4CC[C@H](C(=O)O)CC4)n4ncnc(N)c34)[nH]c12 [OSI-027] (partner 0.5 µM)
Method in brief: as §1

[11] = compound: CC1=C(C(=O)N2C=CSC2=N1)CCN3CCC(=C(C4=CC=CC=C4)C5=CC=C(C=C5)F)CC3 + CS(=O)(=O)CCNCc1ccc(-c2ccc3ncnc(Nc4ccc(OCc5cccc(F)c5)c(Cl)c4)c3c2)o1 [Lapatinib] (partner 2 µM)
Method in brief: as §1

[12] = compound: CC1=C(C(=O)N2C=CSC2=N1)CCN3CCC(=C(C4=CC=CC=C4)C5=CC=C(C=C5)F)CC3 + COc1cc2c(Oc3ccc(NC(=O)C4(C(=O)Nc5ccc(F)cc5)CC4)cc3F)ccnc2cc1OCCCN1CCOCC1 [Foretinib] (partner 0.25 µM)
Method in brief: as §1

[13] = compound: CC1=C(C(=O)N2C=CSC2=N1)CCN3CCC(=C(C4=CC=CC=C4)C5=CC=C(C=C5)F)CC3
Method in brief: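 For viability, nuclei in each treated well were divided by nuclei in vehicle wells and the median across plates was taken. Lung cancer cell lines in 1536-well plates were pinned with five library-drug doses (not always all listed) spaced by √10, cultured 5 days without medium change, and imaged at 4× after Hoechst staining, with plates passing only at control CV below 25% and at least one doubling.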

[14] = compound: CC1=C(C(=O)N2C=CSC2=N1)CCN3CCC(=C(C4=CC=CC=C4)C5=CC=C(C=C5)F)CC3 + CC1(C)CCC(c2ccc(Cl)cc2)=C(CN2CCN(c3ccc(C(=O)NS(=O)(=O)c4ccc(N[C@H](CCN5CCOCC5)CSc5ccccc5)c(S(=O)(=O)C(F)(F)F)c4)cc3)CC2)C1 [Navitoclax] (partner 0.5 µM)
Method in brief: as §1

[15] = compound: CC1=C(C(=O)N2C=CSC2=N1)CCN3CCC(=C(C4=CC=CC=C4)C5=CC=C(C=C5)F)CC3 + O=C(c1cc(Cc2n[nH]c(=O)c3ccccc23)ccc1F)N1CCN(C(=O)C2CC2)CC1 [Olaparib] (partner 8 µM)
Method in brief: as §1

NCI-H1563
relative viability ([1]; first compound 0.08 µM): 0.82
relative viability ([1]; first compound 0.253 µM): 0.909
relative viability ([1]; first compound 0.8 µM): 0.879
relative viability ([1]; first compound 2.53 µM): 0.885
relative viability ([1]; first compound 8 µM): 0.779
relative viability ([2]; first compound 0.08 µM): 0.775
relative viability ([2]; first compound 0.253 µM): 0.842
relative viability ([2]; first compound 0.8 µM): 0.793
relative viability ([2]; first compound 2.53 µM): 0.817
relative viability ([2]; first compound 8 µM): 0.87
relative viability ([3]; first compound 0.08 µM): 0.542
relative viability ([3]; first compound 0.253 µM): 0.684
relative viability ([3]; first compound 0.8 µM): 0.66
relative viability ([3]; first compound 2.53 µM): 0.633
relative viability ([3]; first compound 8 µM): 0.637
relative viability ([4]; first compound 0.08 µM): 0.928
relative viability ([4]; first compound 0.253 µM): 0.957
relative viability ([4]; first compound 0.8 µM): 0.852
relative viability ([4]; first compound 2.53 µM): 0.827
relative viability ([4]; first compound 8 µM): 0.722
relative viability ([5]; first compound 0.08 µM): 1.12
relative viability ([5]; first compound 0.253 µM): 1.26
relative viability ([5]; first compound 0.8 µM): 1.2
relative viability ([5]; first compound 2.53 µM): 1.1
relative viability ([5]; first compound 8 µM): 1.14
relative viability ([6]; first compound 0.08 µM): 0.502
relative viability ([6]; first compound 0.253 µM): 0.531
relative viability ([6]; first compound 0.8 µM): 0.485
relative viability ([6]; first compound 2.53 µM): 0.5
relative viability ([6]; first compound 8 µM): 0.5
relative viability ([7]; first compound 0.08 µM): 0.643
relative viability ([7]; first compound 0.253 µM): 0.572
relative viability ([7]; first compound 0.8 µM): 0.49
relative viability ([7]; first compound 2.53 µM): 0.508
relative viability ([7]; first compound 8 µM): 0.534
relative viability ([8]; first compound 0.08 µM): 0.654
relative viability ([8]; first compound 0.253 µM): 0.7
relative viability ([8]; first compound 0.8 µM): 0.695
relative viability ([8]; first compound 2.53 µM): 0.633
relative viability ([8]; first compound 8 µM): 0.648
relative viability ([9]; first compound 0.08 µM): 0.971
relative viability ([9]; first compound 0.253 µM): 0.766
relative viability ([9]; first compound 0.8 µM): 0.744
relative viability ([9]; first compound 2.53 µM): 0.833
relative viability ([9]; first compound 8 µM): 0.653
relative viability ([10]; first compound 0.08 µM): 0.85
relative viability ([10]; first compound 0.253 µM): 0.72
relative viability ([10]; first compound 0.8 µM): 0.732
relative viability ([10]; first compound 2.53 µM): 0.763
relative viability ([10]; first compound 8 µM): 0.644
relative viability ([11]; first compound 0.08 µM): 0.91
relative viability ([11]; first compound 0.253 µM): 0.845
relative viability ([11]; first compound 0.8 µM): 1
relative viability ([11]; first compound 2.53 µM): 1.01
relative viability ([11]; first compound 8 µM): 0.857
relative viability ([12]; first compound 0.08 µM): 0.943
relative viability ([12]; first compound 0.253 µM): 0.87
relative viability ([12]; first compound 0.8 µM): 0.907
relative viability ([12]; first compound 2.53 µM): 0.946
relative viability ([12]; first compound 8 µM): 0.769
relative viability ([13]; 0.08 µM): 0.903
relative viability ([13]; 0.253 µM): 0.949
relative viability ([13]; 0.8 µM): 0.882
relative viability ([13]; 2.53 µM): 0.986
relative viability ([13]; 8 µM): 0.918

EBC-1
relative viability ([1]; first compound 0.08 µM): 0.812
relative viability ([1]; first compound 0.253 µM): 0.861
relative viability ([1]; first compound 0.8 µM): 0.789
relative viability ([1]; first compound 2.53 µM): 0.97
relative viability ([1]; first compound 8 µM): 0.643
relative viability ([2]; first compound 0.08 µM): 0.215
relative viability ([2]; first compound 0.8 µM): 0.194
relative viability ([2]; first compound 2.53 µM): 0.177
relative viability ([2]; first compound 8 µM): 0.196
relative viability ([3]; first compound 0.08 µM): 0.343
relative viability ([3]; first compound 0.253 µM): 0.37
relative viability ([3]; first compound 0.8 µM): 0.29
relative viability ([3]; first compound 2.53 µM): 0.355
relative viability ([3]; first compound 8 µM): 0.366
relative viability ([4]; first compound 0.08 µM): 0.57
relative viability ([4]; first compound 0.253 µM): 0.64
relative viability ([4]; first compound 0.8 µM): 0.513
relative viability ([4]; first compound 2.53 µM): 0.437
relative viability ([4]; first compound 8 µM): 0.529
relative viability ([5]; first compound 0.08 µM): 0.787
relative viability ([5]; first compound 0.253 µM): 0.804
relative viability ([5]; first compound 0.8 µM): 1.1
relative viability ([5]; first compound 2.53 µM): 0.763
relative viability ([5]; first compound 8 µM): 0.62
relative viability ([14]; first compound 0.08 µM): 0.396
relative viability ([14]; first compound 0.253 µM): 0.344
relative viability ([14]; first compound 0.8 µM): 0.401
relative viability ([14]; first compound 2.53 µM): 0.316
relative viability ([14]; first compound 8 µM): 0.369
relative viability ([15]; first compound 0.08 µM): 0.596
relative viability ([15]; first compound 0.253 µM): 0.756
relative viability ([15]; first compound 0.8 µM): 0.777
relative viability ([15]; first compound 2.53 µM): 0.772
relative viability ([15]; first compound 8 µM): 0.463
relative viability ([11]; first compound 0.08 µM): 0.196
relative viability ([11]; first compound 0.8 µM): 0.212
relative viability ([11]; first compound 2.53 µM): 0.191
relative viability ([11]; first compound 8 µM): 0.225
relative viability ([12]; first compound 0.08 µM): 0.109
relative viability ([12]; first compound 0.253 µM): 0.101
relative viability ([12]; first compound 0.8 µM): 0.104
relative viability ([12]; first compound 2.53 µM): 0.108
relative viability ([12]; first compound 8 µM): 0.106
relative viability ([13]; 0.08 µM): 0.845
relative viability ([13]; 0.253 µM): 0.881
relative viability ([13]; 0.8 µM): 1.09
relative viability ([13]; 2.53 µM): 1.02
relative viability ([13]; 8 µM): 0.671
